# Results: the supplement of paper PMC10307832
# Columns and labels:
# Experiment in all cases: relative viability (nuclei count vs DMSO), 5 days (fraction); higher = more cells survive
# [1] = tested on: A549
# Method in brief: (§1)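 Relative viability equals treated-well nuclei counts divided by vehicle-well nuclei counts. Counts came from 4× images of lung cancer cell lines grown in 1536-well plates for 5 days after pin-tool dosing on the day after seeding. Dosing used one drug alone or a fixed anchor-drug dose plus five library-drug doses (not always all listed) in √10 steps, and values are medians of duplicate plates.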
# [2] = tested on: RERF-LC-KJ
# Method in brief: as §1
# [3] = tested on: EBC-1
# Method in brief: as §1
# [4] = tested on: NCI-H1993
# Method in brief: as §1
# [5] = tested on: NCI-H1703
# Method in brief: as §1
# [6] = tested on: Calu-6
# Method in brief: as §1
# [7] = tested on: NCI-H1299
# Method in brief: as §1
# [8] = tested on: IA-LM
# Method in brief: as §1
# [9] = tested on: HCC-44
# Method in brief: as §1
# [10] = tested on: EKVX
# Method in brief: as §1
# [11] = tested on: NCI-H2126
# Method in brief: as §1
# [12] = tested on: NCI-H2085
# Method in brief: as §1
# [13] = tested on: ABC-1
# Method in brief: as §1
smiles,measurement,setting,value
Nc1ccn([C@@H]2O[C@H](CO)[C@@H](O)[C@@H]2O)c(=O)n1 [Cytarabine] + CC1(C)CCC(c2ccc(Cl)cc2)=C(CN2CCN(c3ccc(C(=O)NS(=O)(=O)c4ccc(N[C@H](CCN5CCOCC5)CSc5ccccc5)c(S(=O)(=O)C(F)(F)F)c4)cc3)CC2)C1 [Navitoclax] (partner 0.5 µM),relative viability,[1]; first compound 0.005 µM,0.969
same,relative viability,[1]; first compound 0.01581 µM,0.588
same,relative viability,[1]; first compound 0.05 µM,0.476
same,relative viability,[1]; first compound 0.1581 µM,0.0384
same,relative viability,[1]; first compound 0.5 µM,0.0234
same,relative viability,[2]; first compound 0.005 µM,0.772
same,relative viability,[2]; first compound 0.01581 µM,1.02
same,relative viability,[2]; first compound 0.05 µM,1.08
same,relative viability,[2]; first compound 0.1581 µM,0.509
same,relative viability,[2]; first compound 0.5 µM,0.325
same,relative viability,[3]; first compound 0.005 µM,0.304
same,relative viability,[3]; first compound 0.01581 µM,0.281
same,relative viability,[3]; first compound 0.05 µM,0.233
same,relative viability,[3]; first compound 0.1581 µM,0.222
same,relative viability,[3]; first compound 0.5 µM,0.165
same,relative viability,[4]; first compound 0.005 µM,0.92
same,relative viability,[4]; first compound 0.01581 µM,0.949
same,relative viability,[4]; first compound 0.05 µM,0.721
same,relative viability,[4]; first compound 0.1581 µM,0.548
same,relative viability,[4]; first compound 0.5 µM,0.624
same,relative viability,[5]; first compound 0.005 µM,0.717
same,relative viability,[5]; first compound 0.01581 µM,0.365
same,relative viability,[5]; first compound 0.05 µM,0.244
same,relative viability,[5]; first compound 0.1581 µM,0.135
same,relative viability,[5]; first compound 0.5 µM,0.105
same,relative viability,[6]; first compound 0.005 µM,0.831
same,relative viability,[6]; first compound 0.01581 µM,0.796
same,relative viability,[6]; first compound 0.05 µM,0.9
same,relative viability,[6]; first compound 0.1581 µM,0.338
same,relative viability,[6]; first compound 0.5 µM,0.22
same,relative viability,[7]; first compound 0.005 µM,1.09
same,relative viability,[7]; first compound 0.01581 µM,1.13
same,relative viability,[7]; first compound 0.05 µM,1.08
same,relative viability,[7]; first compound 0.1581 µM,1.02
same,relative viability,[7]; first compound 0.5 µM,0.989
same,relative viability,[8]; first compound 0.005 µM,0.917
same,relative viability,[8]; first compound 0.01581 µM,0.603
same,relative viability,[8]; first compound 0.05 µM,0.64
same,relative viability,[8]; first compound 0.1581 µM,0.279
same,relative viability,[8]; first compound 0.5 µM,0.151
same,relative viability,[9]; first compound 0.005 µM,0.949
same,relative viability,[9]; first compound 0.01581 µM,1.01
same,relative viability,[9]; first compound 0.05 µM,0.534
same,relative viability,[9]; first compound 0.1581 µM,0.563
same,relative viability,[9]; first compound 0.5 µM,0.26
same,relative viability,[10]; first compound 0.005 µM,0.936
same,relative viability,[10]; first compound 0.01581 µM,0.933
same,relative viability,[10]; first compound 0.05 µM,0.664
same,relative viability,[10]; first compound 0.1581 µM,0.298
same,relative viability,[10]; first compound 0.5 µM,0.198
same,relative viability,[11]; first compound 0.005 µM,0.866
same,relative viability,[11]; first compound 0.01581 µM,0.705
same,relative viability,[11]; first compound 0.05 µM,0.679
same,relative viability,[11]; first compound 0.1581 µM,0.53
same,relative viability,[11]; first compound 0.5 µM,0.454
same,relative viability,[12]; first compound 0.005 µM,1.15
same,relative viability,[12]; first compound 0.01581 µM,1.08
same,relative viability,[12]; first compound 0.05 µM,1.02
same,relative viability,[12]; first compound 0.1581 µM,0.731
same,relative viability,[12]; first compound 0.5 µM,0.728
Nc1ccn([C@@H]2O[C@H](CO)[C@@H](O)[C@@H]2O)c(=O)n1 [Cytarabine] + CC(C)C[C@H](NC(=O)[C@H](Cc1ccccc1)NC(=O)c1cnccn1)B(O)O [Bortezomib] (partner 0.002 µM),relative viability,[2]; first compound 0.005 µM,1.01
same,relative viability,[2]; first compound 0.01581 µM,0.91
same,relative viability,[2]; first compound 0.05 µM,0.974
same,relative viability,[2]; first compound 0.1581 µM,0.68
same,relative viability,[2]; first compound 0.5 µM,0.472
same,relative viability,[13]; first compound 0.005 µM,0.307
same,relative viability,[13]; first compound 0.01581 µM,0.345
same,relative viability,[13]; first compound 0.05 µM,0.285
same,relative viability,[13]; first compound 0.1581 µM,0.233
same,relative viability,[13]; first compound 0.5 µM,0.29
same,relative viability,[3]; first compound 0.005 µM,0.543
same,relative viability,[3]; first compound 0.01581 µM,0.49
same,relative viability,[3]; first compound 0.05 µM,0.515
same,relative viability,[3]; first compound 0.1581 µM,0.341
same,relative viability,[3]; first compound 0.5 µM,0.326
same,relative viability,[4]; first compound 0.005 µM,1.1
same,relative viability,[4]; first compound 0.01581 µM,0.964
same,relative viability,[4]; first compound 0.05 µM,1
same,relative viability,[4]; first compound 0.1581 µM,0.768
same,relative viability,[4]; first compound 0.5 µM,0.62
same,relative viability,[5]; first compound 0.005 µM,0.321
same,relative viability,[5]; first compound 0.01581 µM,0.172
same,relative viability,[5]; first compound 0.05 µM,0.145
same,relative viability,[5]; first compound 0.1581 µM,0.117
same,relative viability,[5]; first compound 0.5 µM,0.134
same,relative viability,[6]; first compound 0.005 µM,0.864
same,relative viability,[6]; first compound 0.01581 µM,0.794
same,relative viability,[6]; first compound 0.05 µM,0.749
same,relative viability,[6]; first compound 0.1581 µM,0.609
same,relative viability,[6]; first compound 0.5 µM,0.356
same,relative viability,[7]; first compound 0.005 µM,1.01
same,relative viability,[7]; first compound 0.01581 µM,1.09
same,relative viability,[7]; first compound 0.05 µM,1.05
same,relative viability,[7]; first compound 0.1581 µM,1.03
same,relative viability,[7]; first compound 0.5 µM,1
same,relative viability,[8]; first compound 0.005 µM,0.739
same,relative viability,[8]; first compound 0.01581 µM,0.663
same,relative viability,[8]; first compound 0.05 µM,0.648
same,relative viability,[8]; first compound 0.1581 µM,0.411
same,relative viability,[8]; first compound 0.5 µM,0.165
same,relative viability,[9]; first compound 0.005 µM,0.828
same,relative viability,[9]; first compound 0.01581 µM,0.895
same,relative viability,[9]; first compound 0.05 µM,0.793
same,relative viability,[9]; first compound 0.1581 µM,0.425
same,relative viability,[9]; first compound 0.5 µM,0.405
same,relative viability,[10]; first compound 0.005 µM,1.22
same,relative viability,[10]; first compound 0.01581 µM,0.947
same,relative viability,[10]; first compound 0.05 µM,0.801
same,relative viability,[10]; first compound 0.1581 µM,0.361
same,relative viability,[10]; first compound 0.5 µM,0.178
same,relative viability,[11]; first compound 0.005 µM,1.08
same,relative viability,[11]; first compound 0.01581 µM,1.07
same,relative viability,[11]; first compound 0.05 µM,1.09
same,relative viability,[11]; first compound 0.1581 µM,0.703
same,relative viability,[11]; first compound 0.5 µM,0.699
same,relative viability,[12]; first compound 0.005 µM,0.983
same,relative viability,[12]; first compound 0.01581 µM,0.913
same,relative viability,[12]; first compound 0.05 µM,0.946
same,relative viability,[12]; first compound 0.1581 µM,0.631
same,relative viability,[12]; first compound 0.5 µM,0.66
CC(=O)O[C@@]12CO[C@@H]1C[C@H](O)[C@@]1(C)C(=O)[C@H](O)C3=C(C)[C@@H](OC(=O)[C@H](O)[C@@H](NC(=O)OC(C)(C)C)c4ccccc4)C[C@@](O)([C@@H](OC(=O)c4ccccc4)[C@H]21)C3(C)C [Docetaxel] + CC1(C)CCC(c2ccc(Cl)cc2)=C(CN2CCN(c3ccc(C(=O)NS(=O)(=O)c4ccc(N[C@H](CCN5CCOCC5)CSc5ccccc5)c(S(=O)(=O)C(F)(F)F)c4)cc3)CC2)C1 [Navitoclax] (partner 0.5 µM),relative viability,[1]; first compound 0.0002 µM,0.985
same,relative viability,[1]; first compound 0.000632 µM,0.245
same,relative viability,[1]; first compound 0.002 µM,0.055
same,relative viability,[1]; first compound 0.006325 µM,0.0522
same,relative viability,[1]; first compound 0.02 µM,0.0365
same,relative viability,[2]; first compound 0.0002 µM,0.754
same,relative viability,[2]; first compound 0.000632 µM,0.576
same,relative viability,[2]; first compound 0.002 µM,0.174
same,relative viability,[2]; first compound 0.006325 µM,0.202
same,relative viability,[2]; first compound 0.02 µM,0.154
same,relative viability,[3]; first compound 0.0002 µM,0.259
same,relative viability,[3]; first compound 0.000632 µM,0.27
same,relative viability,[3]; first compound 0.002 µM,0.152
same,relative viability,[3]; first compound 0.006325 µM,0.206
same,relative viability,[3]; first compound 0.02 µM,0.124
same,relative viability,[4]; first compound 0.0002 µM,0.945
same,relative viability,[4]; first compound 0.000632 µM,0.873
same,relative viability,[4]; first compound 0.002 µM,0.703
same,relative viability,[4]; first compound 0.006325 µM,0.554
same,relative viability,[4]; first compound 0.02 µM,0.436
same,relative viability,[5]; first compound 0.0002 µM,1.07
same,relative viability,[5]; first compound 0.000632 µM,0.551
same,relative viability,[5]; first compound 0.006325 µM,0.129
same,relative viability,[5]; first compound 0.02 µM,0.108
same,relative viability,[6]; first compound 0.0002 µM,1.02
same,relative viability,[6]; first compound 0.000632 µM,0.707
same,relative viability,[6]; first compound 0.002 µM,0.111
same,relative viability,[6]; first compound 0.006325 µM,0.0836
same,relative viability,[6]; first compound 0.02 µM,0.0609
same,relative viability,[7]; first compound 0.0002 µM,1.05
same,relative viability,[7]; first compound 0.000632 µM,1.03
same,relative viability,[7]; first compound 0.002 µM,0.938
same,relative viability,[7]; first compound 0.006325 µM,0.526
same,relative viability,[7]; first compound 0.02 µM,0.351
same,relative viability,[8]; first compound 0.0002 µM,0.506
same,relative viability,[8]; first compound 0.000632 µM,0.172
same,relative viability,[8]; first compound 0.002 µM,0.0734
same,relative viability,[8]; first compound 0.006325 µM,0.0267
same,relative viability,[8]; first compound 0.02 µM,0.024
same,relative viability,[9]; first compound 0.0002 µM,0.962
same,relative viability,[9]; first compound 0.000632 µM,0.934
same,relative viability,[9]; first compound 0.002 µM,0.362
same,relative viability,[9]; first compound 0.006325 µM,0.242
same,relative viability,[9]; first compound 0.02 µM,0.149
same,relative viability,[10]; first compound 0.0002 µM,0.918
same,relative viability,[10]; first compound 0.000632 µM,0.847
same,relative viability,[10]; first compound 0.002 µM,0.37
same,relative viability,[10]; first compound 0.006325 µM,0.196
same,relative viability,[10]; first compound 0.02 µM,0.123
same,relative viability,[11]; first compound 0.0002 µM,0.873
same,relative viability,[11]; first compound 0.000632 µM,0.954
same,relative viability,[11]; first compound 0.002 µM,0.735
same,relative viability,[11]; first compound 0.006325 µM,0.334
same,relative viability,[11]; first compound 0.02 µM,0.227
same,relative viability,[12]; first compound 0.0002 µM,1.05
same,relative viability,[12]; first compound 0.000632 µM,1.03
same,relative viability,[12]; first compound 0.002 µM,0.68
same,relative viability,[12]; first compound 0.006325 µM,0.476
same,relative viability,[12]; first compound 0.02 µM,0.232
